From publication PMC11672299, “Conjugation of Polycationic Peptides Extends the Efficacy Spectrum of β‐Lactam Antibiotics” (Advanced Science, 2024) come the findings set out here.

Each structure is given as a SMILES string. Peptide text beside a SMILES is read from it. * marks the point of attachment. X1 = CC(C)(O/N=C(\C(=O)N[C@@H]1C(=O)N2C(C(=O)[O-])=C(C[n+]3ccccc3)CS[C@H]12)c1csc(N)n1)C(=O)NCCCCCCN1C(=O)CC(*)C1=O

Assay [1] concerns B. subtilis DSM 10. Nature of the assay: microbe, parasite or virus in culture. The assay is classed as cell-based. The conditions noted are these: DSM 10, 20 h. The procedure:
(§1) The minimum inhibitory concentration (MIC) of the β‐lactam–peptide conjugates was determined by broth microdilution as previously described.^[ [17] ^] Briefly, in cation‐adjusted MHB II medium, a twofold serial dilution of the compounds was prepared in 96‐well round‐bottom polystyrene or polypropylene microtiter plates with each well containing 50 µL. The plates were inoculated with 50 µL bacterial suspension and the final inoculum, in a total volume of 100 µL, contained 5 × 10^5 CFU mL^−1. The microplates were incubated for 20 h at 37 ± 1 °C. The lowest concentration preventing visible bacterial growth was considered the MIC value. For susceptibility testing of combinations of β‐lactamase‐inhibitors with either a β‐lactam antibiotic or a β‐lactam–peptide conjugate, fixed concentrations of the inhibitors according to the EUCAST (European Committee on Antimicrobial Susceptibility Testing) guidelines (clavulanic acid = 2 mg L^−1, avibactam = 4 mg L^−1) were used.

Assay [2] deals with T1, PBP2A (Bacillus subtilis, UniProt P54488).
T1 construct: endogenous in cells; host or cells: B. subtilis DSM 10, extracted membrane protein fraction
T1 sequence (P54488 whole entry): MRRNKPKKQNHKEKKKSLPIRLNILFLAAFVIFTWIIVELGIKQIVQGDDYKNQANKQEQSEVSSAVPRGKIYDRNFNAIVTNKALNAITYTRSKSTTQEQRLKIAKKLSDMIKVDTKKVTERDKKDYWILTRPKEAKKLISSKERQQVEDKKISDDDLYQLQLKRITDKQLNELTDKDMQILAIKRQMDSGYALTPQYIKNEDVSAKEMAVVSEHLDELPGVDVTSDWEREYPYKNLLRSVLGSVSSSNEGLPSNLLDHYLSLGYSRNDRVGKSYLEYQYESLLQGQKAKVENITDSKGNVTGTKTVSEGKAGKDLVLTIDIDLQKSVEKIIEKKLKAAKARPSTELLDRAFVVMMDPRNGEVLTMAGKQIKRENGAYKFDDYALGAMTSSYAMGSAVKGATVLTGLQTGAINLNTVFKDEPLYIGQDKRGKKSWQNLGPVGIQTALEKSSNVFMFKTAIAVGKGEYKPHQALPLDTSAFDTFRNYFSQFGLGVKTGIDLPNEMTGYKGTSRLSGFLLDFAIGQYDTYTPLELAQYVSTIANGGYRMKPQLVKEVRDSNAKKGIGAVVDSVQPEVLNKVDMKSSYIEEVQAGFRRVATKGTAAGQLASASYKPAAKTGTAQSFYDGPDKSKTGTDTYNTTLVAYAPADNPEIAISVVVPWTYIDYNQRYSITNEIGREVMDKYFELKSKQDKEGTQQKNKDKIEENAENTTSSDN
Briefly: Gel‐based PBP affinity assay (Bocillin FL competition). The assay is classed as binding. Particulars: B. subtilis membrane fractions, competition with Bocillin FL penicillin; compared with parent β‐lactam. The procedure:
(§2) B. subtilis DSM 10 and E. faecalis ATCC 51 299 (equal to DSM 12 956) membrane protein fractions were extracted according to the protocol of Dean et al. with minor modifications.^[ [34] ^] From a growing overnight bacterial culture, 3 L of LB (Luria‐Bertani) medium or TSB (tryptic soy broth) were inoculated with B. subtilis DSM 10 and E. faecalis ATCC 51 299, respectively, to obtain an OD600 = 0.3. The cultures were grown to an OD600 = 0.6–0.8 while shaking at 37 °C and cells were harvested by centrifugation at 4000 g for 30 min at 4 °C. The resulting pellet was washed twice with pre‐cooled PBS and resuspended in 30 mL of ice‐cooled PBS. The suspension was sonicated on ice (10 cycles of 30 s at 50% power for B. subtilis; 12 cycles of 30 s at 80% power for E. faecalis; 2 min intervals between cycles) using an Omni Ruptor 4000 ultrasonic homogenizer (Omni International, Kennesaw, GA, USA). Afterwards, the suspension was centrifuged at 7000 g for 10 min at 4 °C. The clear supernatant was transferred into a 50 mL polypropylene tube and centrifuged in a Beckman Coulter centrifuge equipped with a JA‐20 fixed‐angle rotor (Beckman Coulter, Krefeld, Germany) at 50 000 g for 1 h at 4 °C. The resulting pellet was washed with ice‐cold PBS and centrifuged a second time. The pellet was resuspended in 2 mL PBS and aliquots were stored at −80 °C. The protein content was determined using Bradford reagent (VWR International, Darmstadt, Germany) and Pierce BCA (bicinchoninic acid) protein assay kits (Thermo Fisher Scientific, Waltham, MA, USA) for membrane fractions of B. subtilis and E. faecalis, respectively.
(§3) Each dilution was combined with B. subtilis (30 µg) or E. faecalis (15 µg) extracted membrane fractions. As reference samples, membrane fractions incubated with only PBS were prepared. Reaction mixtures were incubated for 20 min at 37 °C while shaking at 400 rpm. Next, Bocillin FL penicillin (Thermo Fisher Scientific, Waltham, MA, USA) was added to obtain a final concentration of 20 µM in the mixture. Samples were incubated for 30 min at 37 °C while shaking at 400 rpm. To denature the samples, 4× Laemmli sample buffer (Bio‐Rad Laboratories, Feldkirchen, Germany) was added, and the samples incubated for 10 min at 70 °C. Afterwards, the samples were centrifuged for 5 min at 13 000 rpm. Samples were separated by SDS‐PAGE using a 10% Tris‐glycine gel for 100 min at 180 V. The bands were visualized using a Typhoon FLA 9500 imager (GE Healthcare, Chicago, IL, USA) with excitation at 473 nm. The gel images were analyzed using ImageJ software. Brightness and contrast were adjusted to improve the signal‐to‐noise ratio and the background signal was subtracted over the whole image. Next, integrated density values of the gel bands were measured and Bocillin FL penicillin labeling of each PBP in antibiotic‐treated samples were set in proportion to the reference sample. IC50 values were calculated with GraphPad Prism software (version 8.0.1) using inhibitor versus normalized response variable slope and least‐squares fit. […] The mean was calculated using the IC50 values of at least two independent assays for each antibiotic.

The test system of assay [3] is PBP5. The assay is described as above. In kind it is binding. Particulars: PBPs from vancomycin‐resistant E. faecalis; compared with parent; at concentrations considerably higher than MICs. Here is the method:
as §2, §3

Assay [4] has as its system A. pittii Tü21‐041 (clinical isolate). Nature of the assay: microbe, parasite or virus in culture. The assay is classed as cell-based. Particulars: 20 h. The procedure:
as §1

Assay [5] has as its system E. faecalis ATCC 29212. Nature of the assay: microbe, parasite or virus in culture. The assay is classed as cell-based. Particulars: ATCC 29212, 20 h. The procedure:
as §1

Assay [6] deals with C. freundii Tü21‐052 (clinical isolate). Briefly: microbe, parasite or virus in culture. In kind it is cell-based. The conditions noted are these: 20 h. The procedure:
as §1

Assay [7] deals with E. casseliflavus ATCC 700327. Nature of the assay: microbe, parasite or virus in culture. Particulars: ATCC 700327, 20 h. The assay is classed as cell-based. Here is the method:
as §1

In assay [8] the test system is K. pneumoniae Tü20‐036 (clinical isolate). Nature of the assay: microbe, parasite or virus in culture. In kind it is cell-based. Particulars: Tü20‐036 (clinical isolate, 20 h). Here is the method:
as §1

For assay [9], the system named is E. coli Tü20‐025 (clinical isolate). Briefly: microbe, parasite or virus in culture. Particulars: Tü20‐025 (clinical isolate, 20 h). In kind it is cell-based. Here is the method: as §1
Assay [10] relates to A. bohemicus DSM 100419. Briefly: MIC by broth microdilution. The assay is classed as cell-based. The conditions noted are these: median (n = 3). The procedure: as §1
Assay [11] deals with PBPs of B. subtilis. Briefly: Gel‐based PBP affinity assay (Bocillin FL competition). In kind it is binding. Particulars: at the concentrations tested (0.016–250 µM). The procedure: as §2, §3

As to `C[C@H]1[C@H](NC(=O)/C(=N\OC(C)(C)C(=O)NCCCCCCN2C(=O)CC(SC[C@H](NC(=O)[C@H](CCCNC(=N)N)NC(=O)[C@H](CCCNC(=N)N)NC(=O)[C@H](CCCNC(=N)N)NC(=O)[C@H](CCCNC(=N)N)NC(=O)[C@H](CCCNC(=N)N)NC(=O)[C@@H](N)CCCNC(=N)N)C(N)=O)C2=O)c2csc(N)n2)C(=O)N1S(=O)(=O)O` (some centres unmarked) [AZT-R6], in assay [1], the MIC is 0.06 µg/mL. Further, the “affinity to PBP2A” value in assay [2] is “higher affinity”. Further, the “binding to PBP5” value in [3] is on record as “slightly improved binding”.

Take `N=C(N)NCCC[C@H](NC(=O)[C@H](CCCNC(=N)N)NC(=O)[C@H](CCCNC(=N)N)NC(=O)[C@H](CCCNC(=N)N)NC(=O)[C@H](CCCNC(=N)N)NC(=O)[C@@H](N)CCCNC(=N)N)C(=O)N[C@@H](CSC1CC(=O)N(CCCCCCN)C1=O)C(N)=O` (some centres unmarked) [BB linker‐R6]: the MIC in assay [4], in assay [5], in [6], in assay [7], in assay [1] and in assay [8] was more than 64 µg/mL each time. Further, in [9], the MIC is more than 64 µg/mL.

With `CC(C)(O/N=C(\C(=O)N[C@@H]1C(=O)N2C(C(=O)[O-])=C(C[n+]3ccccc3)CS[C@H]12)c1csc(N)n1)C(=O)NCCCCCCN1C(=O)CC(SC[C@H](NC(=O)[C@H](CCCCN)NC(=O)[C@H](CCCCN)NC(=O)[C@H](CCCCN)NC(=O)[C@H](CCCCN)NC(=O)[C@H](CCCCN)NC(=O)[C@H](CCCCN)NC(=O)[C@H](CCCCN)NC(=O)[C@H](CCCCN)NC(=O)[C@@H](N)CCCCN)C(N)=O)C1=O` (some centres unmarked) [CTZ-K9] (H-KKKKKKKKKC(X1)-NH2; N-terminus and C-terminus assumed), in assay [10], the “antimicrobial activity (rank among CTZ–peptide conjugates)” value is “most potent conjugates”.

For the molecule `C[C@@H](O)[C@H]1C(=O)N2C(C(=O)O)=C(S[C@H]3C[C@@H](C(=O)Nc4cccc(C(=O)O)c4)N(C(=O)C4CCC(CN5C(=O)CC(SC[C@H](NC(=O)[C@H](CCCNC(=N)N)NC(=O)[C@H](CCCNC(=N)N)NC(=O)[C@H](CCCNC(=N)N)NC(=O)[C@H](CCCNC(=N)N)NC(=O)[C@H](CCCNC(=N)N)NC(=O)[C@@H](N)CCCNC(=N)N)C(N)=O)C5=O)CC4)C3)[C@H](C)[C@H]12` (some centres unmarked) [ERT-R6C], the MIC in [1] is less than 0.02 µg/mL. In [2], the “affinity to PBP2A” value was “higher affinity”.

Turning to `N=C(N)NCCC[C@H](NC(=O)[C@H](CCCNC(=N)N)NC(=O)[C@H](CCCNC(=N)N)NC(=O)[C@H](CCCNC(=N)N)NC(=O)[C@H](CCCNC(=N)N)NC(=O)[C@@H](N)CCCNC(=N)N)C(=O)N[C@@H](CS)C(N)=O` [R6C], the MIC in assay [5], in assay [7] and in assay [1] was more than 64 µg/mL in each case. Also, the “binding to the PBPs of B. subtilis” value in [11] is listed as “not observed”.
